Experimental data reported in US20120165309A1, “HETERO RING DERIVATIVE” (Astellas Pharma Inc., priority 2009, published 2012).

Key:
human PI3Kδ enzyme = biological target: T1, human PI3Kδ enzyme (Homo sapiens, UniProt O00329); experiment: PI3Kδ enzyme inhibitory activity (PI3-Kinase HTRF Assay kit); format: biochemical; conditions: human PI3Kδ 10 ng/well, ATP 30 μM, PIP2 10 μM, room temperature 30 minutes
T1 construct: purchased Millipore Corporation 14-604
Protocol: 1. PI3Kδ Enzyme Inhibitory Activity
For the experiment, a PI3-Kinase HTRF Assay kit (Millipore Corporation, Catalogue No. 33-016) and a human PI3Kδ enzyme (Millipore Corporation, Catalogue No. 14-604) were used. The measurement method was in accordance with the appended instructions. The overview thereof is as follows.
PI3Kδ (10 ng/well), phosphatidylinositol-4,5-bisphosphate (10 μM), ATP (30 μM), and the test compound were mixed in a 384-well plate (total 20 μL), and incubated at room temperature for 30 minutes. EDTA and biotinylated phosphatidylinositol-3,4,5-triphosphate were added thereto to stop the reaction. Thereafter, a Europium labeled anti-GST antibody, a GST bond GRP1 PH domain, and streptavidin-APC were added thereto, followed by incubation overnight. An HTRF ratio was measured using an HTRF plate reader. The IC50 value of the compound was calculated, taking the inhibition rate without addition of the enzyme as 100% and the inhibition rate without addition of the test compound as 0%, by means of a logistic method.
(§1) In the Table, Ex represents Example Compound No. as described later, PI3Kδ represents the IC50 value (nM) of a PI3Kδ enzyme inhibitory activity, and PI3Kα represents the IC50 value (nM) of a PI3Kα enzyme inhibitory activity.

Human PI3Kα = biological target: T2, Human PI3Kα (Homo sapiens, UniProt P42336); experiment: PI3Kα enzyme inhibitory activity (Kinase-Glo Plus luminescence); format: biochemical; conditions: Human PI3Kα 12 ng/well, phosphatidylinositol 0.2 μg/well, 37° C. for 3 hours
T2 construct: purchased Millipore Corporation 14-602
Protocol: 2. PI3Kα Enzyme Inhibitory Activity
Human PI3Kα (12 ng/well, Millipore Corporation, Catalogue No. 14-602), phosphatidylinositol (0.2 μg/well), and the test compound were mixed in a 384-well plate in a reaction buffer (50 mM Hepes, 10 mM NaCl, 10 mM MgCl2, 2 mM EGTA, 2 mM DTT, pH 7.3) (total 10 μl), and incubated at 37° C. for 3 hours. After the reaction, 10 μL of a Kinase-Glo Plus reagent (Promega, Catalogue No. V3772) was added thereto, and a luminescence was measured with a luminometer. The IC50 value of the compound was calculated, taking the inhibition rate without addition of the enzyme as 100% and the inhibition rate without addition of the test compound as 0%, by a logistic method.
as §1

[1] = test system: Spleen cells (B cell proliferation); experiment: Rat B cell proliferation inhibition test (anti-rat IgM, [3H]thymidine); format: cell-based; conditions: anti-rat IgM 3 μg/well, 48 hours culture, [3H]thymidine uptake
Protocol: 4. Rat B Cell Proliferation Inhibition Test
Spleen cells (1.0×10^5 cells/well) prepared from male LEW/CrlCrlj rats (Charles River Laboratories, Japan, Inc.), mouse F(ab′)2 fragment anti-rat IgM (3 μg/well, SouthernBiotech Associates, Inc., Catalogue No. 3082-14) and the test compound dissolved in DMSO (final DMSO concentration 0.1%) were mixed in a 96-well plate using a 10% FCS-containing RPMI-1640 culture medium (total 200 μL). They were cultured in a CO2 incubator for 48 hours and [^3H]thymidine (925 GBq/mmol, Moravek Biochemicals, Inc., Catalogue No. MT6038) was added thereto at 0.037 MBq/well at 4 hours before completion of culture. Cells were harvested in a GF/C glass filter using a cell harvester, and a radioactivity on the filter was measured using a liquid scintillation counter. The IC50 value of the compound was calculated, taking the dpm (disintegration per minute) without addition of IgM as an inhibition rate of 100% and the dpm without addition of the test compound as an inhibition rate of 0%, by a logistic method.

T1 sequence (O00329 whole entry): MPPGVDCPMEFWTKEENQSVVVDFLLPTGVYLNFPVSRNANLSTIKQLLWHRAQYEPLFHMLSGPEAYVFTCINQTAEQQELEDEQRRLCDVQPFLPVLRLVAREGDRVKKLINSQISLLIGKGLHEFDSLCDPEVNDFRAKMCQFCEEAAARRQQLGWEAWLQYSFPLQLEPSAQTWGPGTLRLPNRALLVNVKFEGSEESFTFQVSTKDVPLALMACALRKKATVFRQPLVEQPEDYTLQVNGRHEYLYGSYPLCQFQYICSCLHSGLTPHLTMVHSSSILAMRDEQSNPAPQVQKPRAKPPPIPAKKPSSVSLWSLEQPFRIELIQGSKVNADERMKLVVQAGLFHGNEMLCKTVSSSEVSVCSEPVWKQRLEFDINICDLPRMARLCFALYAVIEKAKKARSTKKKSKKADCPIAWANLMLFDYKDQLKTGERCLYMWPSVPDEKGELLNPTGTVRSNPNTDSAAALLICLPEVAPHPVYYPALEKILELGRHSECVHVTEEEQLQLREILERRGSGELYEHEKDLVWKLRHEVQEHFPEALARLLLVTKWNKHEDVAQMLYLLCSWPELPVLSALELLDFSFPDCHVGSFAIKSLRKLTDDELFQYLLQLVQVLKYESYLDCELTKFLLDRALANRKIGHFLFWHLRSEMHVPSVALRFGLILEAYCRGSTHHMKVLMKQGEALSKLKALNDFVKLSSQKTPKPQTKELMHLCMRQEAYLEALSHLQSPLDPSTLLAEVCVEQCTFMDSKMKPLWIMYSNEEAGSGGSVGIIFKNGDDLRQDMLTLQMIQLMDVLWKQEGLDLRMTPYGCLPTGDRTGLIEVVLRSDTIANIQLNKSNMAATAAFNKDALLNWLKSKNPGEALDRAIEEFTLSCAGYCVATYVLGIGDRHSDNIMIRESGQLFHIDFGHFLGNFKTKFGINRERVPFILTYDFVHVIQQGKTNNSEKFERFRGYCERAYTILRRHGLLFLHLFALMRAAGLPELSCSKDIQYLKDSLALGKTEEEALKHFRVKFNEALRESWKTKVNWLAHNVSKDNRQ
T1 sequence (P27986 whole entry partner): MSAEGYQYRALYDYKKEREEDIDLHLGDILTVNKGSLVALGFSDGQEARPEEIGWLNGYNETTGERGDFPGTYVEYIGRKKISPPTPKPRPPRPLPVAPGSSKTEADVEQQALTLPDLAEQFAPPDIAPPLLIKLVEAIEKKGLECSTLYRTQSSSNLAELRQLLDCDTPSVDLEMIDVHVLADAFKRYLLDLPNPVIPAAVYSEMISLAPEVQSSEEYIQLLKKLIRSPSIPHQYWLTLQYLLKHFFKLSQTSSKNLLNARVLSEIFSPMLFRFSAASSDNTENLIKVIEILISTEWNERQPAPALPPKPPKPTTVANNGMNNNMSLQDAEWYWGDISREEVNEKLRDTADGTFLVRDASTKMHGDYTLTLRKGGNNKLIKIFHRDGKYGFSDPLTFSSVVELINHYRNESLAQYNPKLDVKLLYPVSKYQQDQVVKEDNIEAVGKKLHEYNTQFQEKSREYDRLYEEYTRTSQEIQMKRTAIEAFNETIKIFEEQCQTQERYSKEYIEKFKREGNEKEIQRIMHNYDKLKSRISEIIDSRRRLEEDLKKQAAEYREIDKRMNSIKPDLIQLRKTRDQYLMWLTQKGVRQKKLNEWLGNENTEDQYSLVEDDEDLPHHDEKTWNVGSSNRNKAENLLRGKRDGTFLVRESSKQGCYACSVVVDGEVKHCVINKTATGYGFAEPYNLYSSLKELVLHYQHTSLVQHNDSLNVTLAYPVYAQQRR
T2 sequence (P42336 whole entry): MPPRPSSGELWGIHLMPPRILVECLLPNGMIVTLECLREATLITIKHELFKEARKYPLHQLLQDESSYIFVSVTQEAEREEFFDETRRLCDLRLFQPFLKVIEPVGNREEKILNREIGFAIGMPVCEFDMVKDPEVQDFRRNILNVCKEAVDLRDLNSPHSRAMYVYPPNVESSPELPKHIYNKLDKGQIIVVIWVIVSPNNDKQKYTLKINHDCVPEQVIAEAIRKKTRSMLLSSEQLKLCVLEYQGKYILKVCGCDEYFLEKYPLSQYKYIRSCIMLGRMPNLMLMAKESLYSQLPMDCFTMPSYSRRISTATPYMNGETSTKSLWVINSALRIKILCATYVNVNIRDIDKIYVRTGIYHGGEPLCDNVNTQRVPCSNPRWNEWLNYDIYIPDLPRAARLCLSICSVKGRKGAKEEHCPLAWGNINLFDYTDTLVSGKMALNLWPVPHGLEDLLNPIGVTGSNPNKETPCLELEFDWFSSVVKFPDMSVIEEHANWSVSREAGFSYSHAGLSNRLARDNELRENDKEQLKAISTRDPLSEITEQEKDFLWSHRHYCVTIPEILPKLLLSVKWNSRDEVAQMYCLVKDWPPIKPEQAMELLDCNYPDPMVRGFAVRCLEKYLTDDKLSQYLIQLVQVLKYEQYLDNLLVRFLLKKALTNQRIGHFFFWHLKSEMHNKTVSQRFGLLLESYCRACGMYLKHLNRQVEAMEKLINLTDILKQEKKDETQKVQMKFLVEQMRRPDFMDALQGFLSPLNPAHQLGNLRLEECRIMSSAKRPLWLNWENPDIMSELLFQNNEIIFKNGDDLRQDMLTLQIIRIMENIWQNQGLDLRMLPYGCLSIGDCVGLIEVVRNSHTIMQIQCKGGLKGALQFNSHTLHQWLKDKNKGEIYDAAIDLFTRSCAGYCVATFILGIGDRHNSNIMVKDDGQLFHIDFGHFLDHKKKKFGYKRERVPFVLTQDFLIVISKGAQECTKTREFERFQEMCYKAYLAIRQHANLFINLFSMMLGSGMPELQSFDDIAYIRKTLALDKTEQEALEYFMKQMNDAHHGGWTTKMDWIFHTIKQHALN
T2 sequence (P27986 whole entry partner): as the sequence (P27986 whole entry partner) above

| Compound | IC50 (human PI3Kδ enzyme) | IC50 (Human PI3Kα) | IC50 [1] |
| --- | --- | --- | --- |
| FC(F)c1nc2ccccc2n1-c1cc(NC[C@H]2CC[C@H](N3CCOCC3)CC2)nc(N2CCOCC2)n1 [Example 223] | 6.2 nM | > 10000 nM | 1.5 nM |
| COCCN(C1CC1)[C@H]1CC[C@H](CNc2nc(N3CCOCC3)cc(-n3c(C(F)F)nc4ccccc43)n2)CC1 [Example 246] | 5.5 nM | 1700 nM | 2.1 nM |
| COCCN(CC1CC1)[C@H]1CC[C@H](CNc2nc(N3CCOCC3)cc(-n3c(C(F)F)nc4ccccc43)n2)CC1 [Example 271] | 2.6 nM | 2500 nM | 5.5 nM |
| CN(CCO)[C@H]1CC[C@H](CNc2nc(N3CCOCC3)cc(-n3c(C(F)F)nc4ccccc43)n2)CC1 [Example 274] | 9.7 nM | > 3000 nM | 5.5 nM |
| COCCCN(C)[C@H]1CC[C@H](CNc2nc(N3CCOCC3)cc(-n3c(C(F)F)nc4ccccc43)n2)CC1 [Example 280] | 4.9 nM | 2500 nM | 3.8 nM |
| CN(CC(C)(C)O)[C@H]1CC[C@H](CNc2nc(N3CCOCC3)cc(-n3c(C(F)F)nc4ccccc43)n2)CC1 [Example 375] | 12 nM | 1600 nM | 1.2 nM |
| CCN(CC(C)(C)O)[C@H]1CC[C@H](CNc2nc(N3CCOCC3)cc(-n3c(C(F)F)nc4ccccc43)n2)CC1 [Example 385] | 21 nM |  | 1.9 nM |
| CC(C)C(O)CN(C)[C@H]1CC[C@H](CNc2nc(N3CCOCC3)cc(-n3c(C(F)F)nc4ccccc43)n2)CC1 (stereo partly shown) [Example 398] | 32 nM | 3400 nM | 2.3 nM |
| COCC(C)N[C@H]1CC[C@H](CNc2nc(N3CCOCC3)cc(-n3c(C(F)F)nc4ccccc43)n2)CC1 (stereo partly shown) [Example 399] | 22 nM | 3200 nM | 3.4 nM |
| CCN(CC(C)(C)O)[C@H]1CC[C@H](CNc2nc(N3CCOC[C@@H]3C)cc(-n3c(C(F)F)nc4ccccc43)n2)CC1 [Example 403] | 4.9 nM | 700 nM | 0.82 nM |
| C#CCN[C@H]1CC[C@H](CNc2nc(N3CCOCC3)cc(-n3c(C(F)F)nc4ccccc43)n2)CC1 [Example 422] | 6 nM | 5800 nM | 4.9 nM |
| CCN(CC)[C@H]1CC[C@H](CNc2nc(N3CCOCC3)cc(-n3c(C(F)F)nc4ccccc43)n2)CC1 [Example 424] | 6 nM | 3600 nM | 1.7 nM |
| C#CCN(CC(C)(C)O)[C@H]1CC[C@H](CNc2nc(N3CCOCC3)cc(-n3c(C(F)F)nc4ccccc43)n2)CC1 [Example 430] | 2.3 nM | 2300 nM | 1.8 nM |
| COCC(C)N(C)[C@H]1CC[C@H](CNc2nc(N3CCOCC3)cc(-n3c(C(F)F)nc4ccccc43)n2)CC1 (stereo partly shown) [Example 434] | 4.3 nM | 1900 nM | 1.3 nM |
| CC#CCN(CC(C)(C)O)[C@H]1CC[C@H](CNc2nc(N3CCOCC3)cc(-n3c(C(F)F)nc4ccccc43)n2)CC1 [Example 437] | 7.1 nM | 2200 nM | 3.6 nM |
| CC(N(C)[C@H]1CC[C@H](CNc2nc(N3CCOCC3)cc(-n3c(C(F)F)nc4ccccc43)n2)CC1)C(C)(C)O (stereo partly shown) [Example 445] | 7 nM | 3400 nM | 0.72 nM |
| COCC(C)N[C@H]1CC[C@H](CNc2nc(N3CCOC[C@@H]3C)cc(-n3c(C(F)F)nc4ccccc43)n2)CC1 (stereo partly shown) [Example 446] | 8.9 nM | 1700 nM | 1.7 nM |
| COCC(C)N(C)[C@H]1CC[C@H](CNc2nc(N3CCOC[C@@H]3C)cc(-n3c(C(F)F)nc4ccccc43)n2)CC1 (stereo partly shown) [Example 447] | 5.3 nM | 2900 nM | 0.77 nM |
| CC(C)=CCN(CC(C)(C)O)[C@H]1CC[C@H](CNc2nc(N3CCOCC3)cc(-n3c(C(F)F)nc4ccccc43)n2)CC1 [Example 449] | 14 nM | 1300 nM | 2.2 nM |
| COC[C@@H]1CCCN1C1CCC(CNc2nc(N3CCOCC3)cc(-n3c(C(F)F)nc4ccccc43)n2)CC1 (stereo partly shown) [Example 456] | 13 nM | 1800 nM | 1.1 nM |
| FC(F)c1nc2ccccc2n1-c1cc(NC[C@H]2CC[C@H](N3CC[C@H](F)C3)CC2)nc(N2CCOCC2)n1 [Example 461] | 16 nM | 3800 nM | 1.1 nM |
| O=C(CN1CCCC1)N[C@H]1CC[C@H](Oc2cc(-n3c(C(F)F)nc4ccccc43)nc(N3CCOCC3)n2)CC1 [Example 473] | 30 nM | 9900 nM | 4 nM |
| FC[C@@H]1CCCN1[C@H]1CC[C@H](COc2cc(-n3c(C(F)F)nc4ccccc43)nc(N3CCOCC3)n2)CC1 [Example 482] | 4.6 nM | 3400 nM | 4.6 nM |
| CC(C)(O)[C@@H]1CCCN1C1CCC(COc2cc(-n3c(C(F)F)nc4ccccc43)nc(N3CCOCC3)n2)CC1 (stereo partly shown) [Example 486] | 9.8 nM | 3600 nM | 3.6 nM |
| CN(CC(C)(C)O)[C@H]1CC[C@H](COc2cc(-n3c(C(F)F)nc4ccccc43)nc(N3CCOCC3)n2)CC1 [Example 488] | 30 nM | 5600 nM | 2.8 nM |
| COCCN(C)[C@H]1CC[C@H](CNc2cc(-n3c(C(F)F)nc4ccccc43)nc(N3CCOCC3)n2)CC1 [Example 497] | 16 nM |  | 2.1 nM |

Further compounds by falling IC50 (human PI3Kδ enzyme), results first:

| IC50 (human PI3Kδ enzyme) | IC50 (Human PI3Kα) | Compound | IC50 [1] |
| --- | --- | --- | --- |
| 18 nM | 1400 nM | CCN(CCOC)[C@H]1CC[C@H](CNc2nc(N3CCOCC3)cc(-n3c(C(F)F)nc4ccccc43)n2)CC1 [Example 363] | 1.4 nM |
| 15 nM | 5900 nM | CC(C)(O)CN(CC1CCC1)[C@H]1CC[C@H](CNc2nc(N3CCOCC3)cc(-n3c(C(F)F)nc4ccccc43)n2)CC1 [Example 441] | 4.2 nM |
| 14 nM | 3500 nM | CCCN(CCC)[C@H]1CC[C@H](CNc2nc(N3CCOCC3)cc(-n3c(C(F)F)nc4ccccc43)n2)CC1 [Example 450] | 2.1 nM |
| 10 nM | 2700 nM | C=CCN(CC(C)(C)O)[C@H]1CC[C@H](CNc2nc(N3CCOCC3)cc(-n3c(C(F)F)nc4ccccc43)n2)CC1 [Example 442] | 1.2 nM |
| 8.1 nM | 1700 nM | CCN(C(C)C(C)(C)O)[C@H]1CC[C@H](CNc2nc(N3CCOCC3)cc(-n3c(C(F)F)nc4ccccc43)n2)CC1 (stereo partly shown) [Example 471] | 1.3 nM |
| 7.9 nM | 4400 nM | CC(C)(O)[C@@H]1CCCN1C1CCC(CNc2cc(-n3c(C(F)F)nc4ccccc43)nc(N3CCOCC3)n2)CC1 (stereo partly shown) [Example 487] | 1.4 nM |
| 7.7 nM | 780 nM | C[C@H]1COCCN1c1cc(-n2c(C(F)F)nc3ccccc32)nc(NC[C@H]2CC[C@H](N(C)CC(C)(C)O)CC2)n1 [Example 393] | 0.7 nM |
| 6.4 nM | 1200 nM | COCCN(CC(C)F)[C@H]1CC[C@H](CNc2nc(N3CCOCC3)cc(-n3c(C(F)F)nc4ccccc43)n2)CC1 (stereo partly shown) [Example 374] | 2 nM |
| 5.9 nM | 2400 nM | FC(F)c1nc2ccccc2n1-c1cc(N2CCOCC2)nc(NC[C@H]2CC[C@H](N3CCOCC3)CC2)n1 [Example 174] | 2.4 nM |
| 4.8 nM | > 3000 nM | FC(F)c1nc2ccccc2n1-c1cc(N2CCOCC2)nc(NC[C@H]2CC[C@H](N3CCCCC3)CC2)n1 [Example 177] | 1.1 nM |
| 2.8 nM | 950 nM | CCN(C(C)COC)[C@H]1CC[C@H](CNc2nc(N3CCOCC3)cc(-n3c(C(F)F)nc4ccccc43)n2)CC1 (stereo partly shown) [Example 435] | 0.58 nM |
| 1.5 nM | 2600 nM | FC[C@@H]1CCCN1[C@H]1CC[C@H](CNc2cc(-n3c(C(F)F)nc4ccccc43)nc(N3CCOCC3)n2)CC1 [Example 484] | 2.2 nM |
